Measurements as given in PubChem BioAssay (NCI).
“And” between values parts separate entries of the source, which are not always exact repeats. Equal entries are not always repeated.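 Tested at 5 concentrations; 48 h exposure; 96-well plates; endpoints linearly interpolated, else capped at highest concentration. The concentration for 50% growth inhibition is given as GI50. TGI: concentration producing complete growth inhibition.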

How the values were obtained:
Assay in all cases: NCI tumour cell line growth inhibition, 48 h
[1] = tested on: A549 NSCLC
[2] = tested on: BT-549 breast
[3] = tested on: HT29 colon
[4] = tested on: LOX IMVI melanoma
[5] = tested on: M14 melanoma
[6] = tested on: NCI-H460 lung
[7] = tested on: OVCAR-4 ovarian
[8] = tested on: RXF 393 renal
[9] = tested on: UACC-257 melanoma
[10] = tested on: UO-31 renal

| SMILES | GI50 [1] [µM] | TGI [1] [µM] | GI50 [2] [µM] | TGI [2] [µM] | GI50 [3] [µM] | TGI [3] | GI50 [4] | TGI [4] | GI50 [5] [µM] | TGI [5] | GI50 [6] | TGI [6] | GI50 [7] [µM] | TGI [7] | GI50 [8] | TGI [8] | GI50 [9] | TGI [9] | GI50 [10] | TGI [10] |
| --- | --- | --- | --- | --- | --- | --- | --- | --- | --- | --- | --- | --- | --- | --- | --- | --- | --- | --- | --- | --- |
| Fc1cccc(Cl)c1Cn1c(-c2c(F)cccc2Cl)nc2ccccc21 | 11.6 | 33.7 | 25.4 | 53.2 | 30 | > 100 µM | 20.5 µM | 42.2 µM | 19.4 | 53.9 µM | 13.1 µM | 34.1 µM | 23.6 | 58.3 µM | 19.7 µM | 43.6 µM | 12.9 µM | 28.6 µM | 12.4 µM | 28.4 µM |
| O=C(NO)c1ccc(Cn2c(=O)n(-c3ccccc3)c(=O)c3ccccc32)cc1 | 2.33 | 13.6 | 1.55 | 3.92 | 1.83 | 47.9 µM | 1.26 µM | 2.62 µM | 0.539 | 2.09 µM | 1.44 µM | 9.19 µM | 1.56 | 18.7 µM | 1.11 µM | 2.66 µM | 0.811 µM | 2.78 µM | 1.77 µM | 4.63 µM |
| CN(C)CC1CCCCCC(Br)C1=O (stereo not given) |  | > 100 |  | 26.4 |  | 50.3 µM |  | 29.8 µM |  | 37.5 µM |  | 49.6 µM |  | 33.6 µM |  | 32.6 µM |  | 23 µM |  | 26.6 µM |
| CCCCCCCCCCCC1=NC(C)(C)CN1CC(C)O (stereo not given) | 6.83 | 22.6 | 5.93 | 22.2 | 1.43 | 2.86 µM | 1.85 µM | 4.42 µM | 1.62 | 3.1 µM | 2.35 µM | 5.05 µM | 10.6 | 22.4 µM | 2.55 µM | 6.96 µM | 2.81 µM | 7.49 µM | 4.75 µM | 18.7 µM |
| O=C(Nc1ccc(Nc2ccncc2)cc1)c1ccc(Nc2ccnc3ccc([N+](=O)[O-])cc23)cc1[N+](=O)[O-] | 3.95 | > 44.2 | > 78.5 | > 100 | 45.4 | > 100 µM | 4.82 µM | > 51 µM | 21.9 | > 100 µM | 9.96 µM | > 100 µM | 6.01 | > 79.1 µM | 24.9 µM | 42.5 µM | 11.3 µM | 29.5 µM | 7.33 µM | > 64.1 µM |
| O=C(Nc1ccc(Oc2ccc(NC(=O)Nc3ccc([N+](=O)[O-])cc3)cc2)cc1)Nc1ccc([N+](=O)[O-])cc1 | 2.61 | > 78.8 | 2.06 | 7.36 | 2 | 15.9 µM | 1.78 µM | 10.7 µM | 2.37 | 11.7 µM | 1.74 µM | 6.61 µM | 2.07 | > 100 µM | 2.94 µM | > 24.4 µM | 2.82 µM | > 26 µM | 0.516 µM | > 26.4 µM |
| Nc1nc(-c2ccc(Cl)cc2)cc(-c2ccc(Cl)cc2)c1-c1nc2ccccc2o1 | 15.5 | 40.7 | 18.1 | 33.4 | 11.1 | 36.1 µM | 18.7 µM | 36.5 µM | 17.4 | 34.4 µM | 16.8 µM | 39.6 µM | 18.5 | 35.5 µM | 14.1 µM | 33.5 µM | 18.4 µM | 37.8 µM | 14.8 µM | 29.9 µM |
| O=C1C(Br)=C(Br)C(=O)c2ccccc21 |  | 55.8 |  | 15.3 |  | > 100 µM and 21.8 µM | 16.5 µM and 4.69 µM | 31.4 µM and 12.3 µM |  | 28.4 µM and 22.6 µM | 32.7 µM and 10.6 µM | > 100 µM and 33.9 µM |  | 31.4 µM and 33.3 µM | 16.2 µM and 5.85 µM | 29.9 µM and 15.6 µM | 18.2 µM and 8.21 µM | 32.6 µM and 16.7 µM | 13.6 µM and 5.55 µM | 26.7 µM and 14.7 µM |
| O=C1CCSC(=S)N1c1ccc(Br)c(Cl)c1 |  | > 100 |  | 41.1 |  | 33.8 µM |  | 50.4 µM |  | > 100 µM |  | 62.5 µM |  | 50.3 µM |  | 50.8 µM |  | 37.8 µM |  | 82 µM |
| COc1ccc(-c2nnc(SCC(=O)Nc3ccc(C(=O)/C=C/c4cc(OC)c(OC)c(OC)c4)cc3)n2-c2ccccc2)cc1OC | 4.33 | > 10 | 1.98 | 7.99 | 2.07 | > 10 µM | 1.74 µM | 4.87 µM | 3.33 | > 10 µM | 8.54 µM | > 10 µM | > 10 | > 10 µM | 2.13 µM | 6.85 µM | > 10 µM | > 10 µM | > 10 µM | > 10 µM |
| O=C1/C(=C/c2ccc(Cl)c(Cl)c2)CNC/C1=C\c1ccc(Cl)c(Cl)c1 |  | 67.1 |  | 87.2 |  | 45.2 µM |  | 13.5 µM |  | 33.9 µM |  | 29.1 µM |  | 6.3 µM |  | 29.5 µM |  | 72.8 µM |  | 32.2 µM |
| CN(C)c1ccc(Nc2c3ccccc3nc3cc(NC(=O)CCN4CCCC4)ccc23)cc1 | 0.0688 | 1.75 | 1.3 | 2.73 | 0.475 | 2.06 µM | 0.21 µM | 1.46 µM | 0.692 | 2 µM | 0.0423 µM | 0.683 µM | 0.57 | 2.16 µM | 0.466 µM | 1.69 µM | 1.65 µM | 3.51 µM | 0.595 µM | 1.92 µM |
| CCOC(=O)c1ccc(N(C=O)CCC(=O)CCl)cc1 | 1.37 | 12.7 | 0.0588 | 0.884 | 0.186 | 1.18 µM | 0.0586 µM | 1.31 µM | 0.0553 | 1.5 µM | 0.355 µM | 11.1 µM | 0.079 | 3.61 µM | 0.26 µM | 4.49 µM | 1.5 µM | 8.33 µM | 0.552 µM | 1.98 µM |
| O=C(c1nn(-c2ccc(Cl)cc2)cc1O)n1nc(C(F)(F)F)cc1-c1ccccc1 | 6.51 | > 100 | 1.12 | > 100 | 4.07 | > 83.8 µM | 1.88 µM | > 100 µM | 3.69 | > 52.2 µM | 0.767 µM | > 59.3 µM | 2.43 | > 100 µM | 0.687 µM | > 76.1 µM | 2.25 µM | 18.2 µM | 2.9 µM | > 100 µM |
| Cc1ccc(-c2cc(-c3ccc(C)cc3)nc(N3CCN(CCNc4ccnc5cc(Cl)ccc45)CC3)n2)cc1 | 3.62 | 13.3 | 6.06 | 17 | 1.51 | 7.26 µM | 1.82 µM | 6.07 µM | 1.9 | 8.45 µM | 2.21 µM | 9.2 µM | 0.912 | 1.9 µM | 1.45 µM | 7.36 µM | 1.91 µM | 6.88 µM | 1.16 µM | 5.53 µM |
| CCCCCCCCCCC[C@@H](C[C@H]1OC(=O)[C@H]1CCCCCC)OC(=O)[C@@H](CC(C)C)NC=O | 13.1 | > 100 | 1.9 | 15.9 | 3.18 | 35.6 µM | 1.65 µM | 9.6 µM | 6.1 | 87 µM | 3.63 µM | 21.1 µM | 3.6 | 37.7 µM | 1.71 µM | 16.8 µM | 38.4 µM | > 100 µM | 2.52 µM | 59.6 µM |
| O=C(Cc1csc2nc(-c3ccc(Br)cc3)cn12)N/N=C/c1ccc(Cl)cc1Cl | 16.8 | 37.5 | 25.9 | 76.9 | 40.8 | > 100 µM | 21.2 µM | 48.6 µM | 32.9 | > 100 µM | > 100 µM | > 100 µM | 37.3 | > 100 µM | 28.4 µM | 85.1 µM | 68.9 µM | > 100 µM | 72.4 µM | > 100 µM |
| COc1ccc(/C=N\NC(=O)c2ccc3nc(-c4ccc(Cl)cc4)[nH]c3c2)cc1 | 2.46 | 5.65 | 3.36 | 16.4 | 3.09 | 22.1 µM | 2.19 µM | 4.01 µM | 2.41 | 7.76 µM | 1.83 µM | 3.59 µM | 1.79 | 3.36 µM | 1.86 µM | 3.8 µM | 3.27 µM | 10.1 µM | 1.86 µM | 6.38 µM |
| CC(C)=CC(=O)N[C@@H]1CC2CCC3C(CC[C@@]4(C)C3CC[C@@H]4C(C)N(C)C)[C@@]2(C)C[C@@H]1O (stereo not given in full) | 7.27 | 33.8 | 7.57 | 29.3 | 0.496 | 2.92 µM | 1.54 µM | 3.97 µM | 1.86 | 3.69 µM | 2.53 µM | 8.88 µM | 4.32 | > 62 µM | 3.12 µM | 12.2 µM | 3.53 µM | 11.2 µM | 1.62 µM | 4.43 µM |
